# Data published in US20140000883A1, “PETROLEUM RECOVERY PROCESS AND SYSTEM” (Shell Oil Company, priority 2012, published 2014).
# How the values were obtained:
# [1] = Extraction of mined oil sands with solvents (bitumen recovery); details: for Recovered Bitumen: not corrected for residual solvent;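 for Recovered Bitumen: Bitumen mass includes 3 to 7 wt% residual solvent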
# Protocol: The quality of dimethyl sulfide as an oil recovery agent based on the miscibility of dimethyl sulfide with a crude oil relative to other compounds was evaluated. […] Each oil sands sample was weighed and placed in a cellulose extraction thimble that was placed on a porous polyethylene support disk in a jacketed glass cylinder with a drip rate control valve. Each oil sands sample was then extracted with a selected solvent at a selected temperature (10° C. or 30° C.) in a cyclic contact and drain experiment, where the contact time ranged from 15 to 60 minutes. Fresh contacting solvent was applied and the cyclic extraction repeated until the fluid drained from the apparatus became pale brown in color.
# The extracted fluids were stripped of solvent using a rotary evaporator and thereafter vacuum dried to remove residual solvent. […] The residual solids and extraction thimble were air dried, weighed, and then vacuum dried. […] Collectively, the weight of the solid or sample and thimble recovered after extraction plus the quantity of bitumen recovered after extraction divided by the weight of the initial oil sands sample plus the thimble provide the mass closure for the extractions.
# [2] = SARA analysis of extracted bitumen samples; details: bitumen extracted at 30° C.
# Protocol: The bitumen samples extracted at 30° C. from each oil sands sample were evaluated by SARA analysis to determine the saturates, aromatics, resins, and asphaltenes composition of the bitumen samples extracted by each solvent.
# [3] = Incremental oil recovery from formation core after water-flooding; details: after waterflooding with brine
# Protocol: Incremental recovery of oil from a formation core using an oil recovery formulation consisting of dimethyl sulfide following oil recovery from the core by water-flooding was measured to evaluate the effectiveness of DMS as a tertiary oil recovery agent.
# Two 5.02 cm long Berea sandstone cores with a core diameter of 3.78 cm and a permeability between 925 and 1325 mD were saturated with a brine having a composition as set forth in Table 7.
# After saturation of the cores with brine, the brine was displaced by a Middle Eastern Asphaltic crude oil having the characteristics as set forth above in Table 3 to saturate the cores with oil.
# Oil was recovered from each oil saturated core by the addition of brine to the core under pressure and by subsequent addition of DMS to the core under pressure. Each core was treated as follows to determine the amount of oil recovered from the core by addition of brine followed by addition of DMS. Oil was initially displaced from the core by addition of brine to the core under pressure. A confining pressure of 1 MPa was applied to the core during addition of the brine, and the flow rate of brine to the core was set at 0.05 ml/min. The core was maintained at a temperature of 50° C. during displacement of oil from the core with brine. […]
smiles,measurement,setting,value
"CSC [Dimethyl Sulfide, dimethyl sulfide]","recovering bitumen from an oil sand material, compared with the best known fluids",[1]; 10° C. and 30° C.,comparable
same,Weight Change,[1]; extraction at 10 C.,16.9 g
same,Recovered Bitumen,[1]; extraction at 10 C.,16.55 g
same,Weight Change,[1]; extraction at 30 C.,16.7 g
same,Recovered Bitumen,[1]; extraction at 30 C.,16.29 g
same,extraction of / miscibility with asphaltenes,[2],excellent miscibility properties
same,oil recovered of the oil remaining in the core after the waterflood,[3],approximately 60%
